In patent publication US20110143948A1, “MOLECULAR SIGNATURES AND BIOMARKERS ASSOCIATED WITH MELANOMA AND METHODS OF USE THEREOF” (priority 2008, published 2011):

Test system: ncRNAs (SEQ ID NO 28-89)
Assay: ncRNA arrays of melanocytes, keratinocytes, normal skin, melanoma cell lines and patient samples
Design: species or system human
Settings: for ncRNA array expression, patient 2: melanoma patient 2 sample compared to normal skin; for ncRNA array expression, patient 3: melanoma patient 3 sample compared to normal skin; for ncRNA array expression, patient 4: melanoma patient 4 sample compared to normal skin; for ncRNA array expression, patient 5: melanoma patient 5 sample compared to normal skin; for ncRNA array expression, patient 6: melanoma patient 6 sample compared to normal skin; for ncRNA array expression, patient 7: melanoma patient 7 sample compared to normal skin; for ncRNA array expression, patient 8: melanoma patient 8 sample compared to normal skin; for ncRNA array expression, patient 9: melanoma patient 9 sample compared to normal skin; for ncRNA array expression, patient 10: melanoma patient 10 sample compared to normal skin; for ncRNA array expression, patient 19: melanoma patient 19 sample compared to normal skin; for ncRNA array expression, patient 20: melanoma patient 20 sample compared to normal skin; for ncRNA array expression, patient 21: melanoma patient 21 sample compared to normal skin; for ncRNA array expression, patient 22: melanoma patient 22 sample compared to normal skin; for ncRNA array expression, patient 23: melanoma patient 23 sample compared to normal skin; for ncRNA array expression, patient 24: melanoma patient 24 sample compared to normal skin; for ncRNA array expression, patient 25: melanoma patient 25 sample compared to normal skin; for ncRNA array expression, patient 26: melanoma patient 26 sample compared to normal skin; for ncRNA array expression, patient 27: melanoma patient 27 sample compared to normal skin; for ncRNA array expression, patient 28: melanoma patient 28 sample compared to normal skin; for ncRNA array expression, patient 29: melanoma patient 29 sample compared to normal skin; for ncRNA array expression, patient 30: melanoma patient 30 sample compared to normal skin
Summary of the method: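 Differential ncRNA expression was defined against melanocytes or normal skin after subtracting keratinocyte-specific signals, with confirmation by qRT-PCR and Northern blot. Samples were melanoma cell lines, patient tumours, melanocytes, keratinocytes and normal skin, hybridised to a >10,000-probe (>200 nt) ncRNA array that also carries RefSeq mRNA probes.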

Substance	ncRNA array expression, patient 2	ncRNA array expression, patient 3	ncRNA array expression, patient 4	ncRNA array expression, patient 5	ncRNA array expression, patient 6	ncRNA array expression, patient 7	ncRNA array expression, patient 8	ncRNA array expression, patient 9	ncRNA array expression, patient 10	ncRNA array expression, patient 19	ncRNA array expression, patient 20	ncRNA array expression, patient 21	ncRNA array expression, patient 22	ncRNA array expression, patient 23	ncRNA array expression, patient 24	ncRNA array expression, patient 25	ncRNA array expression, patient 26	ncRNA array expression, patient 27	ncRNA array expression, patient 28	ncRNA array expression, patient 29	other results
SEQ ID NO 78 (ATGGAAAGGCCAGGGGAGGGTGGAGCTCAGGAGTGGAAGCACAGGGACTAAGGCCTGAGC; listed as DNA, chemistry not given here; listed as Homo sapiens)	−3.7	−3.634	−3.593	−3.41	−1.8308	−3.861	−3.607	−3.9856	−3.496	−2.807	−3.82	−3.781	−1.089	−1.0414	−3.419	−3.518	−3.351	−3.653	−3.215	−3.656	ncRNA array expression, patient 30: 1.597
SEQ ID NO 79 (GTGTGTACTGATGTCAAAGACCAAATGGATGCCCCTGTGGCCAACAGTACCTTGTTAAAC; listed as DNA, chemistry not given here; listed as Homo sapiens)	0.5938	1.324	1.428	1.43	1.201	1.729	1.728	1.129	0.1808	1.52	1.494	1.271	1.165	1.445	2.943	1.206	0.7039	0.9237	0.5852	0.6174	ncRNA array expression, patient 30: 0.5148
SEQ ID NO 80 (CACACAGCCCAGTCTGCCTGTGATGGTAATATAAATCAAACCAGGGACCCAAGAGCCCAG; listed as DNA, chemistry not given here; listed as Homo sapiens)	−1.594	−1.487	−1.4489	−1.208	−0.982	−1.213	−1.338	−1.383	−1.815	−1.234	−2.056	−1.5287	−0.7073	−0.1143	−1.175	−1.992	−1.983	−1.665	−1.4589	−1.489	ncRNA array expression, patient 30: 0.1296
SEQ ID NO 81 (CTAGGGGCGGAGTTTCTCGTAAGGGGCAAGGCCAAGGCATCTTGTATTGGGGCTGACAGG; listed as DNA, chemistry not given here; listed as Homo sapiens)	−2.704	−2.664	−2.74	−2.515	−1.776	−2.533	−2.25	−2.579	−3.027	−2.079	−2.527	−2.568	−1.3874	−1.288	−2.451	−2.889	−3.081	−2.77	−2.666	−2.727	ncRNA array expression, patient 30: 2.229
SEQ ID NO 82 (GAAGTCAGAAACTAAAGTTCCCTTCTAAGACAAAATCCTGCTTTGGAGAAAAAAAAAAAT; listed as DNA, chemistry not given here; listed as Homo sapiens)	−3.153	−2.943	−3.11	−2.733	−1.179	−3.133	−2.955	−3.056	−3.4499	−3.347	−3.111	−3.1409	−2.791	−3.009	−3.02	−3.428	−3.448	−3.18	−3.348	−3.301	ncRNA array expression, patient 30: −2.485
SEQ ID NO 83 (TCAGTTTGATGATTGGGCTAGGGAATGAAGCTTTGCCACTTAGGAGATAAACCCCATAAC; listed as DNA, chemistry not given here; listed as Homo sapiens)	−1.488	−1.164	−1.691	−1.156	−0.6047	−0.9496	−0.9534	−1.016	−1.381	−1.6448	−1.228	−1.45	−1.116	−1.855	−1.066	−1.422	−1.405	−1.43	−1.28	−1.1118	ncRNA array expression, patient 30: −1.73
SEQ ID NO 84 (TTATTAAAAGGACTGAGGATCATGTGTGTTGGTGTGTCCCGGAGTCTGCTCTAAGGTAAA; listed as DNA, chemistry not given here; listed as Homo sapiens)	1.997	1.789	1.046	0.9959	0.3741	2.005	1.104	1.55	0.2561	1.044	1.668	1.56	2.01	2.078	1.532	1.329	1.373	1.88	1.062	1.558	ncRNA array expression, patient 30: 1.105
SEQ ID NO 85 (TGAGGGGAGAGGGGATGGGAAACATTAGGGCTGGGTTCATGTAAAGGGACCAGCATTGTG; listed as DNA, chemistry not given here; listed as Homo sapiens)	−3.042	−2.236	−3.353	−3.144	−1.878	−3.331	−3.241	−3.15	−2.88	−2.497	−3.4136	−3.4	−1.235	−0.784	−3.14	−3.2	−3.139	−3.328	−3.261	−3.3212	ncRNA array expression, patient 30: 0.6346
